# Laboratory results reported in patent EP0093484A2, “Antibacterial monic acid derivatives” (BEECHAM GROUP PLC, priority 1982, dated 1983).
# Columns and labels:
# M. suipneumoniae JF 435 = experiment: Anti-mycoplasmal activity, MIC in Friis broth agarose; type: cell-based; details: Mesomycoplasma hyopneumoniae, JF435, 144 h, Friis broth solidified with 0.9% agarose, 6 days incubation at 37°C, read-out: MIC
# M. suipneumoniae Str. 11 = experiment: as above; type: cell-based; details: Mesomycoplasma hyopneumoniae, 144 h, Friis broth solidified with 0.9% agarose, 6 days incubation at 37°C, read-out: MIC
# M. suipneumoniae MS16 = experiment: as above; type: cell-based; details: Mesomycoplasma hyopneumoniae, 144 h, Friis broth solidified with 0.9% agarose, 6 days incubation at 37°C, read-out: MIC
# [1] = tested on: M. suipneumoniae PW/C/210; experiment: as above; type: cell-based; details: Mesomycoplasma hyopneumoniae, 144 h, Friis broth solidified with 0.9% agarose, 6 days incubation at 37°C, read-out: MIC
# M. suipneumoniae LABER = experiment: as above; type: cell-based; details: Mesomycoplasma hyopneumoniae, 144 h, Friis broth solidified with 0.9% agarose, 6 days incubation at 37°C, read-out: MIC
# [2] = tested on: M. hyosynoviae ATCC 25591; experiment: as above; type: cell-based; details: 144 h, Friis broth solidified with 0.9% agarose, 6 days incubation at 37°C, read-out: MIC
# M. bovis NCTC 10131 = experiment: microbe, parasite or virus in culture; type: cell-based; details: NCTC10131, 144 h
# M. dispar NCTC 10125 = experiment: Anti-mycoplasmal activity, MIC in Friis broth agarose; type: cell-based; details: 144 h, Friis broth solidified with 0.9% agarose, 6 days incubation at 37°C, read-out: MIC
# M. gallisepticum S6 = experiment: as above; type: cell-based; details: Mycoplasmoides gallisepticum, 144 h, Friis broth solidified with 0.9% agarose, 6 days incubation at 37°C, read-out: MIC
# M. pneumoniae ATCC 15492 = experiment: as above; type: cell-based; details: Mycoplasmoides pneumoniae, ATCC15492, 144 h, Friis broth solidified with 0.9% agarose, 6 days incubation at 37°C, read-out: MIC
# E. coli NCTC 10418 = experiment: Human bacteria, MIC by serial dilution in nutrient agar; type: cell-based; details: Escherichia coli, NCTC10418; E. coli NCTC 10418 (human panel); nutrient agar with 5% chocolated horse blood; 18 hours at 37°C; read-out: MIC
# E. coli ESS = experiment: as above; type: cell-based; details: Escherichia coli, nutrient agar with 5% chocolated horse blood, 18 hours at 37°C, read-out: MIC
# K. aerogenes A = experiment: as above; type: cell-based; details: Klebsiella aerogenes, nutrient agar with 5% chocolated horse blood, 18 hours at 37°C, read-out: MIC
# Ps. aeruginosa 10662 = experiment: as above; type: cell-based; details: Pseudomonas aeruginosa, nutrient agar with 5% chocolated horse blood, 18 hours at 37°C, read-out: MIC
# [3] = tested on: Haemophilus influenzae Q1; experiment: as above; type: cell-based; details: nutrient agar with 5% chocolated horse blood, 18 hours at 37°C, read-out: MIC
# [4] = tested on: Haemophilus influenzae Wy21; experiment: as above; type: cell-based; details: nutrient agar with 5% chocolated horse blood, 18 hours at 37°C, read-out: MIC
# [5] = tested on: Neisseria catarrhalis 1502; experiment: as above; type: cell-based; details: nutrient agar with 5% chocolated horse blood, 18 hours at 37°C, read-out: MIC
# [6] = tested on: Corynebacterium xerosis 9755; experiment: as above; type: cell-based; details: nutrient agar with 5% chocolated horse blood, 18 hours at 37°C, read-out: MIC
# Sarcina lutea 8340 = experiment: as above; type: cell-based; details: Micrococcus luteus, nutrient agar with 5% chocolated horse blood, 18 hours at 37°C, read-out: MIC
# Staph. aureus W2827 = experiment: as above; type: cell-based; details: Staphylococcus aureus, nutrient agar with 5% chocolated horse blood, 18 hours at 37°C, read-out: MIC
# Strep. faecalis I = experiment: as above; type: cell-based; details: Enterococcus faecalis, nutrient agar with 5% chocolated horse blood, 18 hours at 37°C, read-out: MIC
# Strep. agalactiae 2788-B = experiment: as above; type: cell-based; details: Streptococcus agalactiae, nutrient agar with 5% chocolated horse blood, 18 hours at 37°C, read-out: MIC
# Strep. spp. 64/848-C = experiment: as above; type: cell-based; details: nutrient agar with 5% chocolated horse blood, 18 hours at 37°C, read-out: MIC
# Strep. pneumoniae CN33 = experiment: as above; type: cell-based; details: Streptococcus pneumoniae, nutrient agar with 5% chocolated horse blood, 18 hours at 37°C, read-out: MIC
# E. coli E1 = experiment: Veterinary bacteria, MIC by two fold serial dilution in agar; details: Escherichia coli, E1, 18 h
# Description: (§1) The activity of the compounds of the Examples against various organisms important in veterinary infections was determined using two fold serial dilutions in Diagnostic Sensitivity Test Agar inoculated with 10^4 organisms.
# S. dublin S7 = experiment: as above; details: Salmonella enterica, S7, 18 h
# Description: as §1
# Bord. bronchiseptica B08 = experiment: as above; details: Bordetella bronchiseptica, B08, 18 h
# Description: as §1
# Bord. bronchiseptica BO9 = experiment: as above; details: Bordetella bronchiseptica, BO9, 18 h
# Description: as §1
# Past. multocida PA2 = experiment: as above; details: Pasteurella multocida, PA2, 18 h
# Description: as §1
# Past. haemolytica PA5 = experiment: as above; details: Mannheimia haemolytica, PA5, 18 h
# Description: as §1
# [7] = tested on: Erysipelothrix rhusiopathiae NCTC 8163; experiment: as above; details: Erysipelothrix rhusiopathiae, NCTC8163, 18 h
# Description: as §1
# [8] = tested on: Staph. aureus B4 (pen. resistant); experiment: as above; details: Staphylococcus aureus, 18 h
# Description: as §1
# [9] = tested on: Staph. aureus 152 (pen. sens.); experiment: as above; details: Staphylococcus aureus, 18 h
# Description: as §1
# Staph. aureus Oxford = experiment: as above; details: Staphylococcus aureus, 18 h
# Description: as §1
# [10] = tested on: Strep. suis (group D) SPS11; experiment: as above; details: Streptococcus suis, 18 h
# Description: as §1
# Strep. uberis SPU1 = experiment: as above; details: Streptococcus uberis, SPU1, 18 h
# Description: as §1
# Strep. dysgalactiae SPD1 = experiment: as above; details: Streptococcus dysgalactiae, SPD1, 18 h
# Description: as §1
# Strep. agalactiae SPA1 = experiment: as above; details: Streptococcus agalactiae, SPA1, 18 h
# Description: as §1
Structure (SMILES),MIC (M. suipneumoniae JF 435),MIC (M. suipneumoniae Str. 11),MIC (M. suipneumoniae MS16),MIC [1],MIC (M. suipneumoniae LABER),MIC [2],MIC (M. bovis NCTC 10131),MIC (M. dispar NCTC 10125),MIC (M. gallisepticum S6),MIC (M. pneumoniae ATCC 15492),MIC (E. coli NCTC 10418),MIC (E. coli ESS),MIC (K. aerogenes A),MIC (Ps. aeruginosa 10662),MIC [3],MIC [4],MIC [5],MIC [6],MIC (Sarcina lutea 8340),MIC (Staph. aureus W2827),also measured
"CSc1ccc(COC(=O)C=C(C)CC2OCC(CC3OC3C(C)C(C)O)C(O)C2O)cc1 (stereo not shown) [Example 1, p-Methylthiobenzyl monate A]",0.5 µg/mL,0.25 µg/mL,0.25 µg/mL,0.25 µg/mL,0.25 µg/mL,0.05 µg/mL,≤ 0.01 µg/mL,0.1 µg/mL,2.5 µg/mL,1 µg/mL,100 µg/mL,1 µg/mL,> 100 µg/mL,> 100 µg/mL,0.25 µg/mL,0.25 µg/mL,0.25 µg/mL,> 100 µg/mL,> 100 µg/mL,0.5 µg/mL,MIC (Strep. faecalis I): 100 µg/mL; MIC (Strep. agalactiae 2788-B): 1 µg/mL; MIC (Strep. spp. 64/848-C): 0.5 µg/mL; MIC (Strep. pneumoniae CN33): 0.5 µg/mL; MIC (E. coli E1): > 80 µg/mL; MIC (S. dublin S7): > 80 µg/mL; MIC (Bord. bronchiseptica B08): 20 µg/mL; MIC (Bord. bronchiseptica BO9): 5 µg/mL; MIC (Past. multocida PA2): 0.156 µg/mL; MIC (Past. haemolytica PA5): 0.312 µg/mL; MIC [7]: 10 µg/mL; MIC [8]: 0.156 µg/mL; MIC [9]: 0.156 µg/mL; MIC (Staph. aureus Oxford): 0.156 µg/mL; MIC [10]: 2.5 µg/mL; MIC (Strep. uberis SPU1): 0.039 µg/mL; MIC (Strep. dysgalactiae SPD1): 0.156 µg/mL; MIC (Strep. agalactiae SPA1): 0.312 µg/mL
"CC(=CC(=O)OCc1ccc([S+](C)[O-])cc1)CC1OCC(CC2OC2C(C)C(C)O)C(O)C1O (stereo not shown) [Example 2, p- Methylsulphinylbenzyl monate A]",0.25 µg/mL,0.25 µg/mL,0.1 µg/mL,0.1 µg/mL,0.25 µg/mL,0.05 µg/mL,≤ 0.01 µg/mL,0.1 µg/mL,1 µg/mL,1 µg/mL,> 100 µg/mL,0.5 µg/mL,> 100 µg/mL,> 100 µg/mL,0.05 µg/mL,0.1 µg/mL,0.5 µg/mL,> 100 µg/mL,> 100 µg/mL,2.5 µg/mL,MIC (Strep. faecalis I): 50 µg/mL; MIC (Strep. agalactiae 2788-B): 1 µg/mL; MIC (Strep. spp. 64/848-C): 1 µg/mL; MIC (Strep. pneumoniae CN33): 1 µg/mL; MIC (E. coli E1): > 80 µg/mL; MIC (S. dublin S7): > 80 µg/mL; MIC (Bord. bronchiseptica B08): 40 µg/mL; MIC (Bord. bronchiseptica BO9): 5 µg/mL; MIC (Past. multocida PA2): 0.625 µg/mL; MIC (Past. haemolytica PA5): 5 µg/mL; MIC [7]: 20 µg/mL; MIC [8]: 2.5 µg/mL; MIC [9]: 1.25 µg/mL; MIC (Staph. aureus Oxford): 1.25 µg/mL; MIC [10]: 2.5 µg/mL; MIC (Strep. uberis SPU1): 0.156 µg/mL; MIC (Strep. dysgalactiae SPD1): 0.312 µg/mL; MIC (Strep. agalactiae SPA1): 0.625 µg/mL
